# Laboratory results taken from ChEMBL document CHEMBL1201862, “PubChem BioAssay data set” (2004).
# Calls of active or inactive are those of the source.
# Tests used:
# HEK293 [1] = experiment: cells; details: Homo sapiens
# HEK293 [2] = experiment: cells; details: Homo sapiens; remark: listed apart in the source
# Cytochrome P450 2D6 = Cytochrome P450 2D6 (Homo sapiens, UniProt P10635);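 note: CYP2D6 member of a cytochrome P450 panel assay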
# Cytochrome P450 2C9 = Cytochrome P450 2C9 (Homo sapiens, UniProt P11712)
# Chain of Cytochrome P450 2C9 (P11712 whole entry): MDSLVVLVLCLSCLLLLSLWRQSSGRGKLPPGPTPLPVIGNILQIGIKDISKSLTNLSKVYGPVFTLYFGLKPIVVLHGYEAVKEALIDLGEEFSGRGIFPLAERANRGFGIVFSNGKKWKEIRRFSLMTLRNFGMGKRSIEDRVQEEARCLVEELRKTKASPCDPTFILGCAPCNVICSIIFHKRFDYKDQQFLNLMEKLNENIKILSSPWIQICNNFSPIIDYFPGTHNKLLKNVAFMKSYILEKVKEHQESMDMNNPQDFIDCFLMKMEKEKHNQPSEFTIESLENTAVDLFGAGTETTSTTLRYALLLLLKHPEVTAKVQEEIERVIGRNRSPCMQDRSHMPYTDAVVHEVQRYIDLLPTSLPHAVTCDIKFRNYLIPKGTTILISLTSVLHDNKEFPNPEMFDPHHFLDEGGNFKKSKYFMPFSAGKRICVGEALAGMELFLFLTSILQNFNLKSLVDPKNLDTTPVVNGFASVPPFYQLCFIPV
# Cytochrome P450 1A2 = biological target: T1, Cytochrome P450 1A2 (Homo sapiens, UniProt P05177);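 note: PubChem cytochrome P450 panel assay, CYP1A2 panel member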
# T1 sequence (P05177 whole entry): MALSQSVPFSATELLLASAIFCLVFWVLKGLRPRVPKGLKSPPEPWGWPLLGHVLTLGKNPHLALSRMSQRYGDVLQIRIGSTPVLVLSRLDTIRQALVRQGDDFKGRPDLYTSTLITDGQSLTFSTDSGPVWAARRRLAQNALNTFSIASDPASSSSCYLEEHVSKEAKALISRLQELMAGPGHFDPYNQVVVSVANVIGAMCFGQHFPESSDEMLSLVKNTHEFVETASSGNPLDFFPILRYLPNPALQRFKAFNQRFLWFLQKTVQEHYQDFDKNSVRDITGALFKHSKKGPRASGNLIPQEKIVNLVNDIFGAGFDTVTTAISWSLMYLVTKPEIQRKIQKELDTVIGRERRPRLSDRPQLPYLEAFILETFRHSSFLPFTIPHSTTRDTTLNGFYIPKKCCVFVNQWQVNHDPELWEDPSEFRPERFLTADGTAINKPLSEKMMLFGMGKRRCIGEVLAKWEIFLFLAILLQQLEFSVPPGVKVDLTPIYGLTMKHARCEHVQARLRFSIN
# [3] = cytotoxicity in HMLE control line with eGFP shRNA, dose response, counter-screen for HMLE_sh_ECad selective toxicity project, cell-based, HMLE_sh_eGFP, luminescence (AID 463074); type: functional, Homo sapiens;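 note: HMLE human mammary epithelial cells expressing control shRNA against eGFP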
# [4] = Luminescence Cell-Based Dose Retest to Confirm Inhibitors of Cancer Stem Cells. [Related pubchem assays (depositor defined):AID2717, AID2721]; type: functional; details: Homo sapiens
# HEK293 [5] = experiment: cells; type: functional, cell-based; details: Homo sapiens
# HEK293 [6] = experiment: NOD2 signaling inhibitors in MDP-stimulated cells, cell-based, uHTS, luminescence (AID 2001); type: functional; details: Homo sapiens
# HEK293 [7] = experiment: NOD1 signaling inhibitors, primary screen, cell-based, luminescence, uHTS (AID 1578); type: functional; details: Homo sapiens
# HEK293 [8] = experiment: cells; details: Homo sapiens; remark: listed apart in the source
# HEK293 [9] = experiment: cells; type: functional, cell-based; details: Homo sapiens; remark: listed apart in the source
# HEK293 [10] = experiment: cells; type: functional, cell-based; details: Homo sapiens; remark: listed apart in the source
# [11] = biological target: G-protein coupled receptor 55 (Homo sapiens, UniProt Q9Y2T6); experiment: GPR55 antagonists, SAR follow-up, counter-screen for GPR35 antagonist project, imaging, image-based (AID 2397); type: functional
# Chain of G-protein coupled receptor 55 (Q9Y2T6 whole entry): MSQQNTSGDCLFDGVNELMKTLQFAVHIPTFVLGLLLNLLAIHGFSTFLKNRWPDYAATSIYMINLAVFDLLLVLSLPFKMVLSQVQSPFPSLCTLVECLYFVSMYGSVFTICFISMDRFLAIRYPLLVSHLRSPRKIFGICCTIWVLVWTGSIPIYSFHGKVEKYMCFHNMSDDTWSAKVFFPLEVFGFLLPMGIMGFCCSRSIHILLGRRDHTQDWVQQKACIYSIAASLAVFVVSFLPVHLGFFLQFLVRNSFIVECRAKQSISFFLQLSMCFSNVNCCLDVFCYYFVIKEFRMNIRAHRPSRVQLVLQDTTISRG
# [12] = biological target: T2, Replicative DNA helicase DnaB (Mycobacterium tuberculosis, UniProt P9WMR3); experiment: DnaB intein splicing inhibitors, dose response, biochemical, cell-free fluorescence (AID 449749); type: functional
# T2 sequence (P9WMR3 whole entry): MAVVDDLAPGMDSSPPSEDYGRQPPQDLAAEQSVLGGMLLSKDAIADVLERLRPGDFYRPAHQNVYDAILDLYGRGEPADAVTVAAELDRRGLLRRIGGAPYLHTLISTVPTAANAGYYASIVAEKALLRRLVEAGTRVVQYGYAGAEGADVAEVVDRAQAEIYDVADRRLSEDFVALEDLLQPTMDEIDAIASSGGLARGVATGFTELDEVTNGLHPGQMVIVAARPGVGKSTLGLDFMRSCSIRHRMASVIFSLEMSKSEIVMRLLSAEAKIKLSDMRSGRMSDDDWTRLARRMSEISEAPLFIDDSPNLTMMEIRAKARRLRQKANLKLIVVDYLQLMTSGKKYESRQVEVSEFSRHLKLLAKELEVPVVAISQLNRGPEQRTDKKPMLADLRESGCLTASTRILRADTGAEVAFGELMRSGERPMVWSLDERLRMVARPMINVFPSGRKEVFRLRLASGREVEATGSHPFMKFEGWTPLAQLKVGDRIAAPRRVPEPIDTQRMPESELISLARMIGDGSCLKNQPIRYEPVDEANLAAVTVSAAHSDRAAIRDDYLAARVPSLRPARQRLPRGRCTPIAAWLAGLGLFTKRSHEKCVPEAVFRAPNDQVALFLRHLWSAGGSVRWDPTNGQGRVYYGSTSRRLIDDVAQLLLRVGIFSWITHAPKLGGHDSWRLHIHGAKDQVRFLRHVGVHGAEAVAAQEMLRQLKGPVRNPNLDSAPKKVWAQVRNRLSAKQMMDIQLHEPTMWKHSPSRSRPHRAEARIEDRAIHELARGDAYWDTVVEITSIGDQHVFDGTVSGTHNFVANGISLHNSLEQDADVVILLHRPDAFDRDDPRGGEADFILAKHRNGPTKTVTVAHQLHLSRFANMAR
# Protein RecA = biological target: T3, Protein RecA (Mycobacterium tuberculosis, UniProt P9WHJ3); experiment: Fluorescence Cell-Free Homogeneous Dose Retest to Identify Inhibitors of RecA-Intein Splicing Activity. [Related pubchem assays (depositor defined):AID2097, AID2223, AID489010, AID492950]; type: functional
# T3 sequence (P9WHJ3 whole entry): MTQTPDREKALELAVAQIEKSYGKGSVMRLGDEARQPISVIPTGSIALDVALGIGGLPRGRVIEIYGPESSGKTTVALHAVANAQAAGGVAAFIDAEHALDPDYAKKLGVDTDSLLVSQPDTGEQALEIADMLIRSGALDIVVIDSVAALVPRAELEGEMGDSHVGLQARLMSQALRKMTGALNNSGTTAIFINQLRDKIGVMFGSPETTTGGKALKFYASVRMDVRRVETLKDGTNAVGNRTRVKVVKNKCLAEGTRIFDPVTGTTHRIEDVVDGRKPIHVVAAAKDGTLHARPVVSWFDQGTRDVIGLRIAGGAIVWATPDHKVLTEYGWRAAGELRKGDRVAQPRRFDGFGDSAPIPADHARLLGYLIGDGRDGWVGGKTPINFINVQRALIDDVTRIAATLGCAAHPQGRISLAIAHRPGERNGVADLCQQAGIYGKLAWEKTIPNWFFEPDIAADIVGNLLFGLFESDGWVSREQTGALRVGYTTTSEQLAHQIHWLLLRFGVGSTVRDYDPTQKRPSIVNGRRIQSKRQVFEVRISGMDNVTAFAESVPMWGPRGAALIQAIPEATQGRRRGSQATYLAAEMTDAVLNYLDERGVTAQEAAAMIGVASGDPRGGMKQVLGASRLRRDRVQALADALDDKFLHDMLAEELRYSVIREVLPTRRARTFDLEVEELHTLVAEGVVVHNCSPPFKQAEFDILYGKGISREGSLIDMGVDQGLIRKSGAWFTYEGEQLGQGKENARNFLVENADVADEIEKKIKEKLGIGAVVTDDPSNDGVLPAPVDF
# Chain of Cytochrome P450 2D6 (P10635 whole entry): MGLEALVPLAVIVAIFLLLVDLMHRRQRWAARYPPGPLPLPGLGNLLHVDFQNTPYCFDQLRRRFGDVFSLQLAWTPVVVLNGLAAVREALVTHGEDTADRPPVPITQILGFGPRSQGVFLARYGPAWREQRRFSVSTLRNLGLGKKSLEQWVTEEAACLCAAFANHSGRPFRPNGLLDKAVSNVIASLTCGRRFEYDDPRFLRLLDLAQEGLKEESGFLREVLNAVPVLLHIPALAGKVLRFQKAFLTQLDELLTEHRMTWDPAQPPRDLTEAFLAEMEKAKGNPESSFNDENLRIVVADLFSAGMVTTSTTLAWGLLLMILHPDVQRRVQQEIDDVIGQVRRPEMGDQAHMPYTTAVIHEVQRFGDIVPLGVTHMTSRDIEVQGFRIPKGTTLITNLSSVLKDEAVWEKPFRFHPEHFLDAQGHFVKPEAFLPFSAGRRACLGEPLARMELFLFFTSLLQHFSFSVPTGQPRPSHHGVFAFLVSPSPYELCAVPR
compound,measurement,setting,value
C=CCn1c(SC(C)C(=O)NCc2ccc3c(c2)OCO3)nc2scc(-c3ccccc3)c2c1=O (stereo not drawn),EC50,HEK293 [1],> 59.7 µM (inactive)
same,EC50,HEK293 [2],> 59.7 µM (inactive)
same,AC50,Cytochrome P450 2D6,3.16 µM (inconclusive)
C=C[C@H]1CN2CC[C@@H]1C[C@H]2[C@@H](O)c1ccnc2ccc(OC)cc12.Cl.O,AC50,Cytochrome P450 2C9,inactive
same,AC50,Cytochrome P450 1A2,inactive
C=CCc1cc(Cl)ccc1OCCOCCNC(C)CC (stereo not drawn),AC50,[3],34.5 µM (active)
same,AC50,[4],21.5 µM (active)
Cc1ccc(CSc2nc(O)c(C#N)c(-c3ccccc3)n2)cc1,IC50,HEK293 [5],> 20 µM (inactive)
same,IC50,HEK293 [6],12.9 µM (inactive)
same,EC50,HEK293 [7],9.39 µM (active)
same,IC50,HEK293 [8],> 20 µM (inactive)
same,IC50,HEK293 [9],> 20 µM (inactive)
same,IC50,HEK293 [10],> 20 µM (inactive)
COc1cc(NC(=O)c2ccnc(N)c2)cc(C(=O)Nc2cccc(C(F)(F)F)c2)c1,AC50,[3],39.5 µM (active)
same,AC50,[4],17.4 µM (active)
O=C(CCCN1C(=O)/C(=C\c2ccccc2)SC1=S)Nc1ccc(O)cc1,IC50,[11],> 32 µM (inactive)
same,AC50,[12],39 µM (active)
same,EC50,Protein RecA,27.8 µM (active)
